How the values were obtained:
5 HT2C receptor = target: T1, 5 HT2C receptor (Homo sapiens, UniProt P28335); test: affinity to the 5 HT2C receptor; assay type: binding
T1 sequence (P28335 33-458): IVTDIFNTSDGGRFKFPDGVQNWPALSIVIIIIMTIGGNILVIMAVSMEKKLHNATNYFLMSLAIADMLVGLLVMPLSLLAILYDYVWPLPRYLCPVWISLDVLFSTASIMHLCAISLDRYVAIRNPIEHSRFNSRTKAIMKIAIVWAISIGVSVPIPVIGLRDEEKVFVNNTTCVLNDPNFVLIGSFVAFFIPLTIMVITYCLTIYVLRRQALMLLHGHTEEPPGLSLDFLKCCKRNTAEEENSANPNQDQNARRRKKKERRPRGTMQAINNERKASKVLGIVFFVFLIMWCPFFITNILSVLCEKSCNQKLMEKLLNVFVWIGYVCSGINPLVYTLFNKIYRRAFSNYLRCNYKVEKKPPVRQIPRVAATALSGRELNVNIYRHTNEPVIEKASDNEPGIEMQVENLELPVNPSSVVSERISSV

5-HT2A receptors = 5-HT2A receptors (UniProt P14842); test: in-vitro affinity to 5-HT2A receptors, [3H]ketanserine displacement (Example A1); assay type: binding
Text: The 5-HT2A receptors are exposed both to [^3H]ketanserine (a substance known for its affinity to the receptor) and also to the test compound. The decrease in the affinity of [^3H]ketanserine to the receptor is an indication of the affinity of the test substance to the 5-HT2A receptor.

Row | Compound | IC50 (5 HT2C receptor) | IC50 (5-HT2A receptors)
1 | CN1CCN(Cc2cnn(-c3ccc(-c4cccc(F)c4)cc3)c2-c2ccccc2F)CC1 [Example 549, 1-[1-(3′-Fluorobiphenyl-4-yl)-5-(2-fluorophenyl)-1H-pyrazol-4-ylmethyl]-4-methylpiperazine] | 460 nM | 5.4 nM
2 | CN1CCN(Cc2cnn(-c3ccc(-c4ccc5c(c4)OCO5)cc3)c2-c2ccccc2F)CC1 [Example 563, 1-[1-(4-Benzo-1,3-dioxol-5-ylphenyl)-5-(2-fluorophenyl)-1H-pyrazol-4-ylmethyl]-4-methylpiperazine] | 510 nM | 10 nM
3 | c1coc(-c2c(CN3CCNCC3)cnn2-c2ccc(-c3ccc4c(c3)OCCO4)cc2)c1 [Example 595, 1-{1-[4-(2,3-Dihydrobenzo-1,4-dioxin-6-yl)phenyl]-5-furan-2-yl-1H-pyrazol-4-ylmethyl}piperazine] | 150 nM | 22 nM
4 | OC1CCN(Cc2cnn(-c3ccc(-c4cccc(F)c4)cc3)c2-c2ccco2)C1 (stereo not drawn) [Example 562, 1-[1-(3′-Fluorobiphenyl-4-yl)-5-furan-2-yl-1H-pyrazol-4-ylmethyl]pyrrolidin-3-ol] | 530 nM | 9.1 nM
5 | CN1CCN(Cc2cnn(-c3ccc(-c4ccc(Oc5ccccc5)cc4)cc3)c2-c2ccccc2F)CC1 [Example 634, 1-[5-(2-Fluorophenyl)-1-(4′-phenoxybiphenyl-4-yl)-1H-pyrazol-4-ylmethyl]-4-methylpiperazine] | 970 nM | 41 nM
6 | c1coc(-c2c(CN3CCN(C4CCCC4)CC3)cnn2-c2ccc(-c3ccc4c(c3)OCO4)cc2)c1 [Example 569, 1-[1-(4-Benzo-1,3-dioxol-5-ylphenyl)-5-furan-2-yl-1H-pyrazol-4-ylmethyl]-4-cyclopentylpiperazine] | 1000 nM | 12 nM
7 | COc1ccc(-c2ccc(-n3ncc(CN4CCN(C5CCCC5)CC4)c3-c3ccco3)cc2)cc1 [Example 552, 1-Cyclopentyl-4-[5-furan-2-yl-1-(4′-methoxybiphenyl-4-yl)-1H-pyrazol-4-ylmethyl]piperazine] | 2950 nM | 6.1 nM
8 | OC1CCN(Cc2cnn(-c3ccc(-c4ccc(F)cc4)cn3)c2-c2ccco2)C1 (stereo not drawn) [Example 614, 1-{1-[5-(4-Fluorophenyl)pyridin-2-yl]-5-furan-2-yl-1H-pyrazol-4-ylmethyl}pyrrolidin-3-ol] | 1000 nM | 32 nM
9 | OC1CCN(Cc2cnn(-c3ccc(-c4ccc(F)cc4)cc3)c2-c2ccccc2Cl)C1 (stereo not drawn) [Example 636, 1-[5-(2-Chlorophenyl)-1-(4′-fluorobiphenyl-4-yl)-1H-pyrazol-4-ylmethyl]pyrrolidin-3-ol] | 1000 nM | 42 nM
10 | CC(C)N1CCN(Cc2cnn(-c3ccc(-c4ccc(F)cc4)cc3)c2-c2ccco2)CC1 [Example 558, 1-[1-(4′-Fluorobiphenyl-4-yl)-5-furan-2-yl-1H-pyrazol-4-ylmethyl]-4-isopropylpiperazine] | 370 nM | 8.2 nM
11 | CN1CCN(Cc2cnn(-c3ccc(-c4cc(F)ccc4F)cc3)c2-c2ccco2)CC1 [Example 624, 1-[1-(2′,5′-Difluorobiphenyl-4-yl)-5-furan-2-yl-1H-pyrazol-4-ylmethyl]-4-methylpiperazine] | 280 nM | 36 nM
12 | CN1CCC(N(C)Cc2cnn(-c3ccc(-c4ccc(F)cc4)cc3)c2-c2ccco2)C1 (stereo not drawn) [Example 529, [1-(4′-Fluorobiphenyl-4-yl)-5-furan-2-yl-1H-pyrazol-4-ylmethyl]methyl-(1-methylpyrrolidin-3-yl)amine] | 434 nM | 0.514 nM
13 | CN(C)Cc1cnn(-c2ccc(-c3cccc(F)c3)cc2)c1-c1ccco1 [Example 538, [1-(3′-Fluorobiphenyl-4-yl)-5-furan-2-yl-1H-pyrazol-4-ylmethyl]dimethylamine] | 170 nM | 3.4 nM
14 | c1coc(-c2c(CN3CCNCC3)cnn2-c2ccc(-c3ccc4c(c3)OCO4)cc2)c1 [Example 534, 1-[1-(4-Benzo-1,3-dioxol-5-ylphenyl)-5-furan-2-yl-1H-pyrazol-4-ylmethyl]piperazine] | 110 nM | 2 nM
15 | COc1cccc(-c2c(CN(C)C)cnn2-c2ccc(-c3ccc(F)cc3)cc2)c1 [Example 592, [1-(4′-Fluorobiphenyl-4-yl)-5-(3-methoxyphenyl)-1H-pyrazol-4-ylmethyl]dimethylamine] | 510 nM | 20 nM
16 | CN(C)Cc1cnn(-c2ccc(-c3ccc4c(c3)OCO4)cc2)c1-c1ccco1 [Example 531, [1-(4-Benzo-1,3-dioxol-5-ylphenyl)-5-furan-2-yl-1H-pyrazol-4-ylmethyl]dimethylamine] | 74 nM | 1.4 nM
17 | COc1ccccc1-c1c(CN2CCN(C)CC2)cnn1-c1ccc(-c2ccccc2F)cc1 [Example 647, 1-[1-(2′-Fluorobiphenyl-4-yl)-5-(2-methoxyphenyl)-1H-pyrazol-4-ylmethyl]-4-methylpiperazine] | 840 nM | 52 nM

Row | Compound | IC50 (5 HT2C receptor) | IC50 (5-HT2A receptors)
18 | CN1CCN(Cc2cnn(-c3ccc(-c4ccncc4)cc3)c2-c2ccccc2F)CC1 [Example 661, 1-[5-(2-Fluorophenyl)-1-(4-pyridin-4-ylphenyl)-1H-pyrazol-4-ylmethyl]-4-methylpiperazine] | 1000 nM | 77 nM
19 | OC1CCN(Cc2cnn(-c3ccc(-c4ccc5c(c4)OCO5)cc3)c2-c2ccco2)C1 (stereo not drawn) [Example 548, 1-[1-(4-Benzo-1,3-dioxol-5-ylphenyl)-5-furan-2-yl-1H-pyrazol-4-ylmethyl]pyrrolidin-3-ol] | 410 nM | 5.1 nM
20 | Cc1ccoc1-c1c(CN2CCN(C)CC2)cnn1-c1ccc(-c2ccc(F)cc2)cc1 [Example 560, 1-[1-(4′-Fluorobiphenyl-4-yl)-5-(3-methyl-2-furanyl)-1H-pyrazol-4-ylmethyl]-4-methylpiperazine] | 780 nM | 8.9 nM
21 | CN1CCN(Cc2cnn(-c3ccc(-c4ccsc4)cc3)c2-c2ccccc2F)CC1 [Example 574, 1-[5-(2-Fluorophenyl)-1-(4-thiophen-3-ylphenyl)-1H-pyrazol-4-ylmethyl]-4-methylpiperazine] | 520 nM | 14 nM
22 | Fc1ccc(-c2ccc(-n3ncc(CN4CCN(C5CCCC5)CC4)c3-c3ccco3)cc2)cc1 [Example 545, 1-Cyclopentyl-4-[1-(4′-fluorobiphenyl-4-yl)-5-furan-2-yl-1H-pyrazol-4-ylmethyl]piperazine] | 2000 nM | 4.8 nM
23 | CN1CCN(Cc2cnn(-c3ccc(-c4ccc(Cl)s4)cc3)c2-c2ccccc2F)CC1 [Example 589, 1-[1-[4-(5-Chlorothiophen-2-yl)phenyl]-5-(2-fluorophenyl)-1H-pyrazol-4-ylmethyl]-4-methylpiperazine] | 2800 nM | 20 nM
24 | Fc1ccc(-c2ccc(-n3ncc(CN4CCC(COc5ccccn5)CC4)c3-c3ccco3)cc2)cc1 [Example 561, 2-{1-[1-(4′-Fluorobiphenyl-4-yl)-5-furan-2-yl-1H-pyrazol-4-ylmethyl]piperidin-4-ylmethoxy}pyridine] | 1000 nM | 9 nM
25 | Cc1ccoc1-c1c(CN2CCC(O)C2)cnn1-c1ccc(-c2ccc(F)cc2)cc1 (stereo not drawn) [Example 596, 1-[1-(4′-Fluorobiphenyl-4-yl)-5-(3-methyl-2-furanyl)-1H-pyrazol-4-ylmethyl]pyrrolidin-3-ol] | 1000 nM | 22 nM
26 | CN(C)Cc1cnn(-c2ccc(-c3ccc(F)cc3)cc2)c1-c1ccoc1 [Example 576, [1-(4′-Fluorobiphenyl-4-yl)-5-furan-3-yl-1H-pyrazol-4-ylmethyl]dimethylamine] | 180 nM | 16 nM
27 | CN1CCN(C(=O)c2cnn(-c3ccccc3)c2NC(=O)c2ccccc2F)CC1 [Example 640] | 1000 nM | 44 nM
28 | CCN(CC)Cc1cnn(-c2ccc(-c3cccc(F)c3)cc2)c1-c1ccco1 [Example 606, Diethyl-[1-(3′-fluorobiphenyl-4-yl)-5-furan-2-yl-1H-pyrazol-4-ylmethyl]amine] | 1000 nM | 27 nM
29 | Fc1cccc(-c2ccc(-n3ncc(CN4CCNCC4)c3-c3ccco3)cc2)c1 [Example 541, 1-[1-(3′-Fluorobiphenyl-4-yl)-5-furan-2-yl-1H-pyrazol-4-ylmethyl]piperazine] | 150 nM | 3.6 nM
30 | CCN1CCN(Cc2cnn(-c3ccc(-c4cccc(F)c4)cc3)c2-c2ccco2)CC1 [Example 570, 1-Ethyl-4-[1-(3′-fluorobiphenyl-4-yl)-5-furan-2-yl-1H-pyrazol-4-ylmethyl]piperazine] | 500 nM | 12 nM
31 | CCN1CCN(Cc2cnn(-c3ccc(-c4ccc(OC)cc4)cc3)c2-c2ccco2)CC1 [Example 551, 1-Ethyl-4-[5-furan-2-yl-1-(4′-methoxybiphenyl-4-yl)-1H-pyrazol-4-ylmethyl]piperazine] | 495 nM | 6.1 nM
32 | CN1CCC(N(C)Cc2cnn(-c3ccc(-c4ccc(F)cc4)cc3)c2-c2ccco2)C1 (stereo not drawn) [Example 543, [1-(4′-Fluorobiphenyl-4-yl)-5-furan-2-yl-1H-pyrazol-4-ylmethyl]methyl-(1-methyl-3-pyrrolidinyl)amine] | 370 nM | 4 nM
33 | CN1CCN(Cc2cnn(-c3ccc(-c4ccc(F)cc4)cc3)c2-c2ccco2)CC1 [Example 532, 1-[1-(4′-Fluorobiphenyl-4-yl)-5-furan-2-yl-1H-pyrazol-4-ylmethyl]-4-methylpiperazine] | 190 nM | 1.48 nM

Source: patent US7842695B2, “Substituted pyrazole compounds” (Merck Patent GmbH, priority 2003, dated 2010)
